Measured values from patent US11753407B2, “Compounds for treating spinal muscular atrophy” (PTC Therapeutics, Inc., priority 2012, dated 2023).

Key:
[1] = tested on: SMN2 minigene mRNA (SMN2-A minigene) in HEK293H cells; assay: SMN2 minigene mRNA splicing RT-qPCR assay in cultured cells; format: cell-based, human; details: Homo sapiens, HEK293-H; concentration increasing full length SMN2 mRNA 1.5-fold relative to vehicle-treated cells; HEK293H cells with SMN2-A minigene, 24 hours, 7-point concentration data; read-out: EC1.5x for production of full length SMN2 mRNA
How it was run: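 HEK293H cells stably carrying the SMN2-A minigene were treated for 24 h at 37 °C with a 7-point, 3.16-fold dilution series of compound. Multiplex RT-qPCR measured exon 7-containing minigene FL mRNA against GAPDH, expressed relative to vehicle by modified ΔΔCt; the EC1.5× is the concentration giving a 1.5-fold increase.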

[2] = tested on: Smn protein in SMA patient fibroblast cells (GM03813); assay: Smn protein assay in cultured cells (SMN HTRF); format: cell-based, human; details: SMA patient fibroblast cells, 48 hours; for maximum fold (Fold) increase of Smn protein: 7-point concentration data, fold relative to vehicle control; for EC1.5x for Smn protein expression: 7-point concentration curve, SMN HTRF, concentration producing 1.5 times Smn protein vs DMSO vehicle control
How it was run: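 SMA patient fibroblasts (5,000 cells/well, DMEM-10% FBS) were treated for 48 h at 37 °C with a 7-point, 3.16-fold dilution series in triplicate. RIPA lysates were probed by HTRF (anti-SMN d2/kryptate, overnight, room temperature), reading 665/620 nm. EC1.5× is the concentration giving 1.5-fold Smn over DMSO vehicle.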

SMILES | EC (1.5-fold increase) [1] | maximum fold (Fold) increase of Smn protein [2] | melting point | EC1.5x for Smn protein expression [2]
CN1CCN(c2ccc3nc(-c4ccc5c(c4)OCO5)cc(=O)n3c2)CC1 [Compound 19, 2-(1,3-benzodioxol-5-yl)-7-(4-methylpiperazin-1-yl)-4H-pyrido[1,2-a]pyrimidin-4-one] | 1 to 3 µM | ** (a fold increase between >1.2 and ≤1.35 is indicated by two stars (**)) | 235 to 237 °C | 
C[C@@H]1CN(c2ccc3nc(-c4ccc5c(c4)OCO5)cc(=O)n3c2)CCN1 [Compound 20, 2-(1,3-benzodioxol-5-yl)-7-[(3R)-3-methylpiperazin-1-yl]-4H-pyrido[1,2-a]pyrimidin-4-one] | 1 to 3 µM | **** (a fold increase between >1.5 and ≤1.65 is indicated by four stars (****)) | 195 to 197 °C | ** (an EC1.5× between >1 μM and ≤3 μM is indicated by two stars (**))
C[C@@H]1CN(c2ccc3nc(-c4ccc5c(c4)OCO5)cc(=O)n3c2)C[C@H](C)N1 [Compound 21, 2-(1,3-benzodioxol-5-yl)-7-[(3R,5S)-3,5-dimethylpiperazin-1-yl]-4H-pyrido[1,2-a]pyrimidin-4-one] | 3 to 30 µM | * (A maximum fold increase of ≤1.2 is indicated by one star (*)) | 198 to 201 °C | 
COc1cccc(-c2cc(=O)n3cc(N4CCNCC4)ccc3n2)c1 [Compound 22, 2-(3-methoxyphenyl)-7-(piperazin-1-yl)-4H-pyrido[1,2-a]pyrimidin-4-one] | 0.3 to 1 µM | *** (a fold increase between >1.35 and ≤1.5 is indicated by three stars (***)) | 147 to 149 °C | ** (an EC1.5× between >1 μM and ≤3 μM is indicated by two stars (**))
COc1cccc(-c2cc(=O)n3cc(N4CCN(C)CC4)ccc3n2)c1 [Compound 23, 2-(3-methoxyphenyl)-7-(4-methylpiperazin-1-yl)-4H-pyrido[1,2-a]pyrimidin-4-one] | 3 to 30 µM | *** (a fold increase between >1.35 and ≤1.5 is indicated by three stars (***)) | 173 to 175 °C | 
COc1cccc(-c2cc(=O)n3cc(N4CCN[C@H](C)C4)ccc3n2)c1 [Compound 24, 2-(3-methoxyphenyl)-7-[(3R)-3-methylpiperazin-1-yl]-4H-pyrido[1,2-a]pyrimidin-4-one] | 1 to 3 µM | *** (a fold increase between >1.35 and ≤1.5 is indicated by three stars (***)) | 164 to 166 °C | * (An EC1.5× for Smn protein expression between >3 μM and ≤10 μM is indicated by one star (*))
COc1cccc(-c2cc(=O)n3cc(N4C[C@@H](C)N[C@@H](C)C4)ccc3n2)c1 [Compound 25, 7-[(3R,5S)-3,5-dimethylpiperazin-1-yl]-2-(3-methoxyphenyl)-4H-pyrido[1,2-a]pyrimidin-4-one] | 1 to 3 µM | * (A maximum fold increase of ≤1.2 is indicated by one star (*)) | 189 to 191 °C | 
CCN1CCN(c2ccc3nc(-c4cccc(OC)c4)cc(=O)n3c2)CC1 [Compound 26, 7-(4-ethylpiperazin-1-yl)-2-(3-methoxyphenyl)-4H-pyrido[1,2-a]pyrimidin-4-one] | 3 to 30 µM | ** (a fold increase between >1.2 and ≤1.35 is indicated by two stars (**)) | 158 to 160 °C | 
COc1cccc(-c2cc(=O)n3cc(N4CCCN(C)CC4)ccc3n2)c1 [Compound 28, 2-(3-methoxyphenyl)-7-(4-methyl-1,4-diazepan-1-yl)-4H-pyrido[1,2-a]pyrimidin-4-one] | 3 to 30 µM | ** (a fold increase between >1.2 and ≤1.35 is indicated by two stars (**)) | 130 to 132 °C | 
COc1ccc(-c2cc(=O)n3cc(N4CCN[C@@H](C)C4)ccc3n2)cc1OC [Compound 30, 2-(3,4-dimethoxyphenyl)-7-[(3S)-3-methylpiperazin-1-yl]-4H-pyrido[1,2-a]pyrimidin-4-one] | < 0.1 µM | **** (a fold increase between >1.5 and ≤1.65 is indicated by four stars (****)) | 153 to 158 °C | ** (an EC1.5× between >1 μM and ≤3 μM is indicated by two stars (**))
O=c1cc(-c2ccc3c(c2)OCCO3)nc2ccc(N3CCNCC3)cn12 [Compound 31, 2-(2,3-dihydro-1,4-benzodioxin-6-yl)-7-(piperazin-1-yl)-4H-pyrido[1,2-a]pyrimidin-4-one] | 1 to 3 µM | * (A maximum fold increase of ≤1.2 is indicated by one star (*)) | 230 to 232 °C | 
C[C@H]1CN(c2ccc3nc(-c4ccc5c(c4)OCCO5)cc(=O)n3c2)CCN1 [Compound 32, 2-(2,3-dihydro-1,4-benzodioxin-6-yl)-7-[(3S)-3-methylpiperazin-1-yl]-4H-pyrido[1,2-a]pyrimidin-4-one] | 1 to 3 µM | * (A maximum fold increase of ≤1.2 is indicated by one star (*)) | 205 to 207 °C | 
O=c1cc(-c2ccccc2)nc2ccc(N3CCNCC3)cn12 [Compound 33, 2-phenyl-7-(piperazin-1-yl)-4H-pyrido[1,2-a]pyrimidin-4-one] | 1 to 3 µM | * (A maximum fold increase of ≤1.2 is indicated by one star (*)) | 151 to 153 °C | 
C[C@H]1CN(c2ccc3nc(-c4ccccc4)cc(=O)n3c2)CCN1 [Compound 34, 7-[(3S)-3-methylpiperazin-1-yl]-2-phenyl-4H-pyrido[1,2-a]pyrimidin-4-one] | 1 to 3 µM | ** (a fold increase between >1.2 and ≤1.35 is indicated by two stars (**)) | 170 to 173 °C | 
C[C@@H]1CN(c2ccc3nc(-c4ccc5c(c4)OCCO5)cc(=O)n3c2)CCN1 [Compound 35, 2-(2,3-dihydro-1,4-benzodioxin-6-yl)-7-[(3R)-3-methylpiperazin-1-yl]-4H-pyrido[1,2-a]pyrimidin-4-one] | 3 to 30 µM | * (A maximum fold increase of ≤1.2 is indicated by one star (*)) | 212 to 214 °C | 
CC1(C)CN(c2ccc3nc(-c4ccc5c(c4)OCCO5)cc(=O)n3c2)CCN1 [Compound 36, 2-(2,3-dihydro-1,4-benzodioxin-6-yl)-7-(3,3-dimethylpiperazin-1-yl)-4H-pyrido[1,2-a]pyrimidin-4-one] | 3 to 30 µM | * (A maximum fold increase of ≤1.2 is indicated by one star (*)) | 196 to 198 °C | 
C[C@@H]1CN(c2ccc3nc(-c4ccc5c(c4)OCCO5)cc(=O)n3c2)C[C@H](C)N1 [Compound 37, 2-(2,3-dihydro-1,4-benzodioxin-6-yl)-7-[(3R,5S)-3,5-dimethylpiperazin-1-yl]-4H-pyrido[1,2-a]pyrimidin-4-one] | 1 to 3 µM | * (A maximum fold increase of ≤1.2 is indicated by one star (*)) | 247 to 250 °C | 
O=c1cc(-c2ccc3c(c2)OCCO3)nc2ccc(N3CCCNCC3)cn12 [Compound 38, 7-(1,4-diazepan-1-yl)-2-(2,3-dihydro-1,4-benzodioxin-6-yl)-4H-pyrido[1,2-a]pyrimidin-4-one] | 3 to 30 µM | * (A maximum fold increase of ≤1.2 is indicated by one star (*)) | 180 to 182 °C | 
CN1CCCN(c2ccc3nc(-c4ccc5c(c4)OCCO5)cc(=O)n3c2)CC1 [Compound 39, 2-(2,3-dihydro-1,4-benzodioxin-6-yl)-7-(4-methyl-1,4-diazepan-1-yl)-4H-pyrido[1,2-a]pyrimidin-4-one] | 3 to 30 µM | * (A maximum fold increase of ≤1.2 is indicated by one star (*)) | 150 to 152 °C | 
COc1ccc(-c2cc(=O)n3cc(N4CCN(C)CC4)cc(F)c3n2)cc1OC [Compound 40, 2-(3,4-dimethoxyphenyl)-9-fluoro-7-(4-methylpiperazin-1-yl)-4H-pyrido[1,2-a]pyrimidin-4-one] | 3 to 30 µM | * (A maximum fold increase of ≤1.2 is indicated by one star (*)) | 183 to 185 °C | 
O=c1cc(-c2cccc(Cl)c2)nc2ccc(N3CCNCC3)cn12 [Compound 41, 2-(3-chlorophenyl)-7-(piperazin-1-yl)-4H-pyrido[1,2-a]pyrimidin-4-one] | 0.3 to 1 µM | *** (a fold increase between >1.35 and ≤1.5 is indicated by three stars (***)) | 185 to 189 °C | 
O=c1cc(-c2ccc(Cl)cc2)nc2ccc(N3CCNCC3)cn12 [Compound 42, 2-(4-chlorophenyl)-7-(piperazin-1-yl)-4H-pyrido[1,2-a]pyrimidin-4-one] | 1 to 3 µM | * (A maximum fold increase of ≤1.2 is indicated by one star (*)) | 207 to 212 °C | 
